Consider five compounds from patent EP4559922A1, “ANTIHISTAMINE COMPOUND, PREPARATION METHOD THEREFOR AND USE THEREOF” (HC Synthetic Pharmaceutical Co., Ltd., priority 2022, dated 2024).

The nature of data set [1]: Solubility of the compounds in water, methanol and isopropanol. The format is physicochemical. As to conditions: for Solubility in Water: solvent water.
For the next data set, the system named is histamine. Nature of the data set: Antagonism of histamine-induced contraction of isolated ileal smooth muscle of guinea pigs. The conditions noted are these: x±s, n = 8; for Smooth muscle tone After administration: 3 minutes after adding 0.05 mL compound following histamine; for Smooth muscle tone After addition of histamine: after 0.05 mL histamine, before compound; for Smooth muscle tone Before administration: baseline before histamine. Here is the method:
(§1) The guinea pig was knocked unconscious with a wooden stick, and the abdomen was immediately dissected to separate the ileum about 15 cm in length. The contents of the intestinal segment were flushed with Tyrode's solution and placed in Tyrode's solution at a constant temperature of 37°C for later use, and oxygen was supplied simultaneously. The experimental intestinal tract (1 cm in length) was cut and placed into 20 ml of Tyrode's solution at a constant temperature of 37°C with a continuous oxygen supply. One end of the intestine was fixed on the ventilation hook and the other end was connected to the muscle tone transducer and led to the computer interface. The muscle tone value of the ileal smooth muscle was recorded with a BL system. The experiment was carried out after the intestinal segment contraction became stable.
(§2) After the ileal peristalsis curve stabilized, the tone values before adding the compound were recorded, and then 0.05 mL of histamine was added. […] The operation was repeated 8 times. The antispasmodic percentage was calculated using the following equation. Antispasmodic percentage =; (Tone value after adding histamine−Tone value after adding subject compound)/(Tone value after adding histamine) × 100% [formula]

Assay in data set [2]: as above
As to conditions: relative to tone after adding histamine; x±s, n = 8; 3 min. Here is the method:
as §1, §2

The subject of data set [3] is histamine-induced asthma in guinea pigs. The experiment in a line: Antiasthmatic effect on histamine-induced asthma in guinea pigs (latency period). Type of data set: in vivo. As to conditions: X±s, n = 5; for Post-administration latency period: 1 mg/kg oral gavage, sixty minutes after administration, histamine hydrochloride spray, capped at 8 minutes; for Pre-administration latency period: baseline before administration, histamine hydrochloride 0.8 mg/mL sprayed 40 seconds. The method, then: The guinea pigs were placed in a polymethyl methacrylate bell jar and a histamine hydrochloride solution was sprayed ultrasonically (0.8 mg/mL) for 40 seconds. The time point at which the guinea pigs developed asthma was recorded. The time of convulsion and fall was taken as the latency period. Guinea pigs with a latency period exceeding 180 seconds were not selected. […] The guinea pigs were administered by oral gavage at a dose of 2 mL/kg·bw. Sixty minutes after the administration, the guinea pigs were placed in bell jars, and histamine hydrochloride solution was sprayed under the same conditions as in the previous selection. The latency period for the onset of asthma was recorded. […] The results were processed statistically.

For data set [4], the system named is isolated ileal smooth muscle of guinea pigs. The experiment in a line: Effect on muscle tone of isolated ileal smooth muscle of guinea pigs (no histamine added). As to conditions: X±s; for Smooth muscle tone After administration: 5 minutes after adding drug; for Smooth muscle tone After administration / Smooth muscle tone Before administration: n = 8; for Antispasmodic percentage: relative to tone before adding compound, n = 8, 5 min; for Smooth muscle tone Before administration: baseline. Here is the method: as §1
After the ileum contraction curve stabilized, the tone values before adding the drug were recorded, then the drug or DMSO was added, and the average tone value of the ileum contraction curve at that point was recorded 5 minutes later. The operation was repeated 8 times. The antispasmodic percentage was calculated according to the following formula. Antispasmodic percentage =; (Tone value before adding subject compound−Tone value after adding subject compound)/(Tone value before adding subject compound); × 100% [formula]

The nature of data set [5]: Accelerated stability test. Type of data set: physicochemical. The conditions noted are these: 40°C ± 2°C, relative humidity 75% ± 5%.

Values after ≈ are worked out from the molar mass of the structure shown.

With `O=C1Cc2ccccc2C(=C2CCN(CCCOCOP(=O)(O)O)CC2)c2ccsc21` [Compound III-7], in data set [1], the “Solubility in Water” value was 20 mg/mL (≈ 43.2 mM). For the same compound, the “Smooth muscle tone After administration” value in the data set on histamine came out at 1.16 ± 0.22 g; in data set [4], 1.20 ± 0.25 g. For the same compound, the figures for the Antispasmodic percentage in data set [2] and in data set [4] (5 min) were 66.28±16.16% and 30.23±19.04%, respectively. The same compound registered a Post-administration latency period in data set [3] of 377.23 ± 50.23 s. This compound also had a Content in data set [5] (Month 0) of 99.7%. Further, the Description entry in data set [5] (Month 0), in data set [5] (Month 1), in data set [5] (Month 2), in data set [5] (Month 3) and in data set [5] (Month 6) was “White powder” each time. Also, the Related substances in data set [5] (Month 0) amounted to 0.03%; in data set [5] (Month 1), 0.05%; in data set [5] (Month 2) it was 0.10%; in data set [5] (Month 3), 0.15%; in data set [5] (Month 6), 0.34%. Besides, the remaining at 730 h in data set [5] (storage 75% relative humidity, Month 1, read-out: Content) worked out at 99.7%. Further, the remaining at 1460 h in data set [5] (storage 75% relative humidity, Month 2, read-out: Content) worked out at 99.6%. Moreover, the remaining at 2190 h in data set [5] (storage 75% relative humidity, Month 3, read-out: Content) stood at 99.5%. The remaining at 4380 h in data set [5] (storage 75% relative humidity, Month 6, read-out: Content) came to 99.2%.

As for `O=C1Cc2ccccc2C(=C2CCN(COP(=O)(O)O)CC2)c2ccsc21` [Compound III-1], the “Solubility in Water” value in data set [1] was 20 mg/mL (≈ 49.3 mM). Further, in the data set with histamine, the “Smooth muscle tone After administration” value was 1.14 ± 0.23 g, the “Smooth muscle tone After addition of histamine” value amounted to 3.43 ± 1.06 g and the “Smooth muscle tone Before administration” value came to 1.79 ± 0.21 g. In addition, the Antispasmodic percentage in data set [2] came to 66.76±16.11%. Moreover, in data set [3], the Post-administration latency period was found to be 376.25 ± 51.77 s and the Pre-administration latency period is 98.57 ± 49.10 s. Also, in data set [4], the “Smooth muscle tone After administration” value came to 1.18 ± 0.25 g and the “Smooth muscle tone Before administration” value amounted to 1.70 ± 0.17 g. This compound yielded an Antispasmodic percentage in data set [4] (5 min) of 30.59±18.11%.

For the compound `O=C1Cc2ccccc2C(=C2CCN(CCCCCOCOP(=O)(O)O)CC2)c2ccsc21` [Compound III-9], in data set [1], the “Solubility in Water” value turned out to be 20 mg/mL (≈ 40.7 mM). The entries for the “Smooth muscle tone After administration” value (with histamine; in data set [4]) were 1.17 ± 0.24 g and 1.12 ± 0.29 g, respectively. The Antispasmodic percentage in data set [2] worked out at 67.25±17.74%; in data set [4] (5 min), 34.50±19.89%. In addition, the Post-administration latency period in data set [3] was 267.95 ± 51.16 s.

Turning to `OCCCCCCN1CCC(=C2c3ccc(Cl)cc3CCc3cccnc32)CC1` [Hydroxyhexyl desloratadine, reference compound], in data set [1] (solvent isopropanol), the “Solubility in Isopropanol” value is 32 mg/mL (≈ 77.9 mM). The “Solubility in Methanol” value in data set [1] (solvent methanol) amounted to 15 mg/mL (≈ 36.5 mM). Further, the “Solubility in Water” value in data set [1] is on record as “Practically insoluble”. Moreover, the “Smooth muscle tone After administration” value with histamine stood at 1.43 ± 0.47 g; in data set [4] it was 1.30 ± 0.30 g. Besides, the Antispasmodic percentage in data set [2] is 58.06±13.39%; in data set [4], 24.42±11.13%. This compound also gave a Post-administration latency period in data set [3] of 281.18 ± 53.76 s.

In the case of `O=C1Cc2ccccc2C(=C2CCN(CCCCOCOP(=O)(O)O)CC2)c2ccsc21` [Compound III-8], in data set [1], the “Solubility in Water” value worked out at 20 mg/mL (≈ 41.9 mM). For the same compound, in the data set with histamine, the “Smooth muscle tone After administration” value came to 1.12 ± 0.21 g, the “Smooth muscle tone After addition of histamine” value stood at 3.42 ± 0.99 g and the “Smooth muscle tone Before administration” value worked out at 1.78 ± 0.20 g. In data set [2], this compound yielded an Antispasmodic percentage of 66.47±18.83%. In data set [3], this compound gave a Post-administration latency period of 376.24 ± 50.42 s and a Pre-administration latency period of 99.49 ± 51.11 s. In addition, in data set [4], the “Smooth muscle tone After administration” value was 1.16 ± 0.21 g and the “Smooth muscle tone Before administration” value stood at 1.70 ± 0.29 g. In data set [4] (5 min), this compound displayed an Antispasmodic percentage of 31.76±18.69%.
